# Measurements published in patent publication US6949566B2, “Thiazole and oxazole derivatives” (Shionogi & Co. Ltd., priority 2000, dated 2005).
# How the values were obtained:
# Assay type in all cases: biochemical
# MMP-8 = target: T1, MMP-8 (Homo sapiens, UniProt P22894); assay: Assay for inhibitory activities on MMPs (fluorogenic peptide substrate), MMP-8; conditions: catalytic domain 99Phe-262Gly; substrate MOCAc-Pro-Leu-Gly-Leu-A2Pr(DNP)-Ala-Arg-NH2
# T1 construct: catalytic domain (^99Phe˜^262Gly) was amplified with PCR; His-tag; enterokinase digestion-site; made in house; host or cells: Escherichia coli
# Source text: In regard to MMP-8, catalytic domain (^99Phe˜^262Gly) was amplified with PCR using commercial available Human Bone Marrow cDNA. This was cloned in Escherichia. coli expression vector pTrc99AHE inserted with His-tag sequence and enterokinase digestion-site, induced and expressed by IPTG (Isopropyl-β-D-thiogalactopyranoside) and expressed in a insoluble fraction (Thau F. Ho, M. Walid Qoronfleh, Robert C. Wahl, Trica A. Pulvino, Karen J. Vavra, Joe Falvo, Tracey M. Banks, Patricia G. Brake and Richard B. Ciccarelli: Gene expression, purification and characterization of recombinant human neutrophil collagenase. Gene 146, (1994) 297-301, Prepared by the a improved method of this material). Isolation of MMP-8 from an insoluble fraction was carried out by dissolving in modifier (6M urea) by a usual method and purification with metal chelate chromatography. And then removing modifier (6M urea) with dialysis and refolding of the enzyme spontaneously gave activated MMP-8.
# (§1) The enzymatic activity on MMPs was analyzed by the method described in “C. Graham Knight, Frances Willenbrock and Gillian Murphy: A novel coumarin-labelled peptide for sensitive continuous assays of the matrix metalloproteinases: FEBS LETT., 296, (1992), 263-266”. The substrate MOCAc-Pro-Leu-Gly-Leu-A2Pr(DNP)-Ala-Arg-NH2 was purchased from Peptide Institute, Inc., Osaka, Japan. The measurement of the inhibitory activities (IC50) was carried out by the following four methods;
# (§2) (A) Reaction with substrate, enzyme (MMPs) and inhibitor
# (§3) (B) Reaction with substrate and inhibitor, without enzyme
# (§4) (C) Reaction with substrate and enzyme (MMPs), without inhibitor
# (§5) (D) Reaction with substrate only
# (§6) IC50 values were calculated by using the following formula and each fluorescence values of above four methods (A to D). % inhibition={1−(A−B)/(C−D)}×100 IC50 means the concentration required to inhibit 50% of the enzyme activity.
# MMP-9 = target: T2, MMP-9 (Homo sapiens, UniProt P14780); assay: Assay for inhibitory activities on MMPs (fluorogenic peptide substrate), MMP-9; conditions: MMP-9 from HT1080 cells, activated by TPCK-Trypsin; substrate MOCAc-Pro-Leu-Gly-Leu-A2Pr(DNP)-Ala-Arg-NH2
# T2 construct: endogenous in cells; host or cells: HT1080 human fibrosarcoma cells, TPA-stimulated; enzyme purified from conditioned medium
# Source text: MMP-9 was isolated and purified by procedures described in as follows: Yasunori Okada, Yukio Gonoji, Katsumi Naka, Katsuro Tomita, Isao Nakanishi, Kazushi Iwata, Kyoko Yamashita, and Taro Hayakawa: Matrix metalloproteinase 9 (92-kDa gelatinase/type IV collagenase) from HT1080 human fibrosarcoma cells. Purification and activation of the precursor and enzymic properties J. Biol. Chem., 1992, 267 21712-21719, in combination with others: 1)Yasunori Okada, Tatsuhisa Morodomi, Jan J, Enghild, ko Suzuki, Atsushi Yasui, Isao Nakanishi, Guy Salvesen and Hideaki Nagase: Matrix metalloproteinase 2 from human rheumatoid synovial fibroblasts. Purification and activation of the precursor and enzymic properties. Eur. J. Biochem. 1990, 194 721-730; 2)Robin V Ward, Rosalind M Hembry, John J Reynolds and Gillian Murphy: The purification of tissue inhibitor of metalloproteinase-2 from its 72 kDa progelatinase complex. Biochem. J. 1991 278 179-187. In detail, human fibrosarcoma ATCC HT1080 cell line was cultured to confluent in Dulbecco's Modified Medium (DMEM) containing 10% fetal-calf serum at 37° C. for 48 hours. Subsequently, the medium of confluent culture was changed to serum-free DMEM medium. To obtain MMP-9, Phorbol-12-myristate-13-acetate (TPA) must be added to this serum-free DMEM medium at a concentration of 50 ng/ml. The TPA treated medium was centrifuged at 3000 rpm for 15 min and the supernatant was concentrated to 450 ml by a Toyo-Roshi UP-20 apparatus with an ultrafiltration membrane. Then, proMMP-9 in this concentrated solution was purified by using columns of Gelatin-Sepharose and Concanavalin A-Sepharose. The pool containing proMMP-9 was dialyzed, concentrated (Toyo-Roshi UP-20) and applied to columns of Sephacryl S-200 and Green A matrix for the separation from TIMPs. The obtained proMMP-9 fraction was activated by TPCK-Trypsin (Final conc. 3 μg/501 μl React Mix.).
# as §1, §2, §3, §4, §5, §6
# MMP-2 = target: T3, MMP-2 (Homo sapiens, UniProt P08253); assay: Assay for inhibitory activities on MMPs (fluorogenic peptide substrate), MMP-2; conditions: purchased MMP-2; substrate MOCAc-Pro-Leu-Gly-Leu-A2Pr(DNP)-Ala-Arg-NH2
# T3 construct: purchased Calbiochem-Novabiochem International, Inc
# T3 sequence (P08253 110-660): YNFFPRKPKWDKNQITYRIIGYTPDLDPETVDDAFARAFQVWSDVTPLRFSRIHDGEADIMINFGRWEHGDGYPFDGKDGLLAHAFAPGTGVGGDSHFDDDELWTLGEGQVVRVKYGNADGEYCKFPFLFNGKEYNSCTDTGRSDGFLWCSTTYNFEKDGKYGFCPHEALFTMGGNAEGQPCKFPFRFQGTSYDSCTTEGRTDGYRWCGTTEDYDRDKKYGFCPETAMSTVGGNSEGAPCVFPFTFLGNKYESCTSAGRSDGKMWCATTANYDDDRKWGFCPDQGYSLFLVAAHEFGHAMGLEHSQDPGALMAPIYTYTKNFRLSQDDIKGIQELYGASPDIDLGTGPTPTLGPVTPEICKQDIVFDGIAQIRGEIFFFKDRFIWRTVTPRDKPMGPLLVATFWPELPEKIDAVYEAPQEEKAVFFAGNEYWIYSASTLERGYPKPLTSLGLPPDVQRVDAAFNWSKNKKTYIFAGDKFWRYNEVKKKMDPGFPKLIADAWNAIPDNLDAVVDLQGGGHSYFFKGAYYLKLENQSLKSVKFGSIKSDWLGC
# Experimental: MMP-2 was purchased from Calbiochem-Novabiochem International, Inc.
# as §1, §2, §3, §4, §5, §6
# MMP-13 = target: T4, MMP-13 (Homo sapiens, UniProt P45452); assay: Assay for inhibitory activities on MMPs (fluorogenic peptide substrate), MMP-13; conditions: catalytic domain 104Tyr-267Gly; substrate MOCAc-Pro-Leu-Gly-Leu-A2Pr(DNP)-Ala-Arg-NH2
# T4 construct: catalytic domain (^104Tyr˜^267Gly) was amplified with RT-PCR; His-tag; enterokinase digestion-site; made in house; host or cells: Escherichia coli
# Experimental: (§7) In regard to MMP-13, mRNA was prepared from carcinoma cell SW1353 derived from human cartilage stimulate by IL-1, TNF and catalytic domain (^104Tyr˜^267Gly) was amplified with RT-PCR. This was cloned in Escherichia. coli expression vector pTrc99AHE inserted with His-tag sequence and enterokinase digestion-site, induced and expressed by IPTG (Isopropyl-β-D-thiogalactopyranoside) and expressed in a insoluble fraction. Isolation of MMP-13 from an insoluble fraction was carried out by dissolving in modifier (6M urea) by a usual method and purification with metal chelate chromatography (Ni Chelateing Sepharose). And then removing modifier (6M urea) with dialyze and refolding of the enzyme spontaneously gave activated MMP-13.
# as §1, §2, §3, §4, §5, §6
# MMP-12 = target: T5, MMP-12 (Homo sapiens, UniProt P39900); assay: Assay for inhibitory activities on MMPs (fluorogenic peptide substrate), MMP-12; conditions: catalytic domain 100Phe-263Gly; substrate MOCAc-Pro-Leu-Gly-Leu-A2Pr(DNP)-Ala-Arg-NH2
# T5 construct: catalytic domain(^100Phe˜^263Gly) was amplified with RT-PCR; His-tag; enterokinase digestion-site; made in house; host or cells: Escherichia coli
# Experimental: as §7, with “MMP-12,” for “MMP-13, mRNA was prepared from carcinoma cell SW1353 derived from human cartilage stimulate by IL-1, TNF and”, “domain(^100Phe˜^263Gly)” for “domain (^104Tyr˜^267Gly)”, “RT-PCR from Human Placenta Total RNA.” for “RT-PCR.”, “MMP-12” for “MMP-13”, “dialysis” for “dialyze”, “MMP-12.” for “MMP-13.”
# as §1, §2, §3, §4, §5, §6
# T5 sequence (P39900 100-263): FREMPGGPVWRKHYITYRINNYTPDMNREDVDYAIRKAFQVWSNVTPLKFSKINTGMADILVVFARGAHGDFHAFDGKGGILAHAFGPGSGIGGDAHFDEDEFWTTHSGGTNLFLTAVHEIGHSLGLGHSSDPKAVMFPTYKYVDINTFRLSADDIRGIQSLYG
# T1 sequence (P22894 99-262): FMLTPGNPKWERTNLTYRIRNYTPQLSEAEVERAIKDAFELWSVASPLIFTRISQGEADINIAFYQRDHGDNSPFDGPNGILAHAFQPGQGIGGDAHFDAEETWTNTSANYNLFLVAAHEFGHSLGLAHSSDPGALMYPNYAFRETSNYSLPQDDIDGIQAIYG
# T2 sequence (P14780 107-707 limits assumed): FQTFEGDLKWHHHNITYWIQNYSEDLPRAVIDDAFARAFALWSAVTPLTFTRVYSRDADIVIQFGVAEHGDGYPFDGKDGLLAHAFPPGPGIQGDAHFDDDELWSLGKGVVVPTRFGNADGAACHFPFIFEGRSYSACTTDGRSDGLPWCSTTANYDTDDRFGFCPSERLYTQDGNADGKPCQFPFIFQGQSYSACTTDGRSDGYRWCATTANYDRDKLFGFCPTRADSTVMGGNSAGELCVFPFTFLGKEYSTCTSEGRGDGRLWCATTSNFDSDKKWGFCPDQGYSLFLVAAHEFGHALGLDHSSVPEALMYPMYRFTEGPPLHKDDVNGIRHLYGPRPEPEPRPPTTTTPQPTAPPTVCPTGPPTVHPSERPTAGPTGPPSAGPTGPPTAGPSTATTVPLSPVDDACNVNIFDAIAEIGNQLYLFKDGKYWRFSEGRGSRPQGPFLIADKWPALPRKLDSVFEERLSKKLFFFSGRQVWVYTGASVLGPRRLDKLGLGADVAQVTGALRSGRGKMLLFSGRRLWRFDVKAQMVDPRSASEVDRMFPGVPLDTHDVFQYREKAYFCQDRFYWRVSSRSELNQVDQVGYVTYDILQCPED
SMILES,IC50 (MMP-8) [nM],IC50 (MMP-9) [nM],IC50 (MMP-2) [nM],IC50 (MMP-13) [nM],IC50 (MMP-12) [nM]
C[C@@H](NS(=O)(=O)c1ccc(-c2ncc(-c3ccc(Br)cc3)o2)cc1)C(=O)O [Compound A-10],97.4,135,5.46,59.2,2.42
CC(C)[C@H](NS(=O)(=O)c1ccc(-c2ncc(-c3ccc(Cl)cc3)o2)cc1)C(=O)O [Compound A-24],337,2370,670,678,10
CC(C)C[C@@H](NS(=O)(=O)c1ccc(-c2ncc(-c3ccc(Cl)cc3)o2)cc1)C(=O)O [Compound A-30],320,502,44.4,226,11.4
O=C(O)[C@@H](Cc1ccccc1)NS(=O)(=O)c1ccc(-c2ncc(-c3ccc(F)cc3)o2)cc1 [Compound A-19],113,247,14.4,113,7.71
CC(C)[C@@H](NS(=O)(=O)c1ccc(-c2ncc(-c3ccc(F)cc3)o2)cc1)C(=O)O [Compound A-25],75.9,179,12.2,140,7.48
COc1ccc(-c2cnc(-c3ccc(S(=O)(=O)N[C@H](CC(C)C)C(=O)O)cc3)o2)cc1 [Compound A-28],26.1,483,10.9,44.8,5.05
COc1ccc(-c2cnc(-c3ccc(S(=O)(=O)N[C@@H](C)C(=O)O)cc3)o2)cc1 [Compound A-9],266,9320,287,433,27.3

# Other lines, results leading:
IC50 (MMP-8) [nM],IC50 (MMP-9) [nM],IC50 (MMP-2) [nM],IC50 (MMP-13) [nM],IC50 (MMP-12) [nM],SMILES
92.3,11.8,1.2,5.08,1.41,O=C(O)[C@@H](Cc1ccccc1)NS(=O)(=O)c1ccc(-c2ncc(-c3ccc(Cl)cc3)s2)cc1 [Compound B-13]
51.7,5.69,0.484,4.82,0.949,C[C@@H](NS(=O)(=O)c1ccc(-c2ncc(-c3ccc(Cl)cc3)s2)cc1)C(=O)O [Compound B-25]
373,173,2.41,12.4,2.54,C[C@@H](NS(=O)(=O)c1ccc(-c2ncc(-c3ccc4ccccc4c3)s2)cc1)C(=O)O [Compound B-53]
42.5,54.4,8.3,14.1,1.24,C[C@H](NS(=O)(=O)c1ccc(-c2ncc(-c3ccc(Cl)cc3)s2)cc1)C(=O)O [Compound B-26]
144,35.7,3.57,32.6,4.55,CC(C)C[C@@H](NS(=O)(=O)c1ccc(-c2ncc(-c3ccc(Cl)cc3)s2)cc1)C(=O)O [Compound B-31]
31.7,3.96,0.373,3.38,0.643,CC(C)[C@@H](NS(=O)(=O)c1ccc(-c2ncc(-c3ccc(Br)cc3)s2)cc1)C(=O)O [Compound B-10]
104,11.6,2.14,7.43,2.54,O=C(O)C[C@@H](NS(=O)(=O)c1ccc(-c2ncc(-c3ccc(Cl)cc3)s2)cc1)C(=O)O [Compound B-38]
56.9,5.71,1.27,5.51,3.06,CC(C)[C@@H](NS(=O)(=O)c1ccc(-c2ncc(-c3ccc(Cl)cc3)s2)cc1)C(=O)O [Compound B-4]
25.7,14.8,5.24,6.18,1.33,CC(C)[C@H](NS(=O)(=O)c1ccc(-c2ncc(-c3ccc(Cl)cc3)s2)cc1)C(=O)O [Compound B-5]
18.5,109,6.3,8.4,1.5,COc1ccc(-c2cnc(-c3ccc(S(=O)(=O)N[C@@H](C)C(=O)O)cc3)s2)cc1 [Compound B-24]
18.9,70.5,7.45,15,3.16,CC(C)[C@H](NS(=O)(=O)c1ccc(-c2ncc(-c3ccccc3)s2)cc1)C(=O)O [Compound B-3]
10.5,11.1,1.38,9.53,1.96,CC(C)[C@@H](NS(=O)(=O)c1ccc(-c2ncc(-c3ccc(F)cc3)s2)cc1)C(=O)O [Compound B-8]
